Measured values as given in patent US10300104B2, “Multi-arm linker for treating rejection reaction in transplantation” (Immunwork Inc., priority 2015, dated 2019).

Columns and labels:
[1] = system: mTOR/p70S6K signaling pathway; assay: Western blot analysis of mTOR/p70S6K signaling pathway in Jurkat T cells; type: cell-based, human; settings: 10 ng/ml IL2, 100 nM, 24 hours, FIG. 20A
Protocol: To examine the biological activities of these compounds, western blot analysis of mTOR/p70S6K signaling pathway and T-cell proliferation assay were performed with human Jurkat T cells. T-cell viability and proliferation were assessed using alamarBlue® cell viability reagent (Invitrogen).
For the western blot analysis of mTOR/p70S6K signaling pathway, briefly, Jurkat T cell were seeded into 6-cm cell culture dish in RPM11640 medium containing 10% fetal bovine serum.
Insoluble material was collected by centrifugation at 14,000×g for 20 minutes at 4° C. The cell lysate samples were separated on 10% SDS-PAGE gels and transferred to a PVDF membrane (Millipore). The membrane blots were blocked in PBS containing 5% BSA for 1 hour at room temperature, and incubated with primary antibodies, anti-phospho-p70S6K antibody (Cell Signaling Technology, Danvers, USA) and anti-p70S6K antibody (Cell Signaling Technology), overnight at 4° C. […] Then the membranes were washed three times with TBST, and immunoreacted bands were detected with ECL™ western blotting detection reagents (Millipore) and exposed on Fujifilm (Tokyo, Japan). Relative quantification of ECL signals on X-ray films were analyzed by using Image J (NIH, Bethesda, Md., USA).

scFv specific for CTLA-4 = assay: Western blot of recombinant CTLA-4 with scFv specific for CTLA-4; type: binding; settings: scFv specific for CTLA-4 1 μg/ml; FIG. 14C
Protocol: Recombinant CTLA-4 protein was analyzed and detected using western blotting. Briefly, 50 μl of the purified CTLA-4 protein was electrophoresed on the 12% SDS-PAGE gel (lane 2) and electroblotted over to a PDVF membrane. The protein (CTLA-4)-IgG1Fc-(scFv α HLA-A1) was used as a positive control (lane 1). After blocking with 5% BSA in TBST at room temperature for 1 hour, the diluted scFv specific for CTLA-4 (1 μg/ml) was added and incubated with the membrane overnight at 4° C. with gentle shaking. The membrane was rinsed and washed 3 times with TBST. The diluted HRP-conjugated protein L (1:5000) was added and incubated with the membrane at room temperature for 1 hour, and the rinse and wash cycle was repeated with TBST for 3 times. The membrane was then incubated with HRP substrate solution for 20 minutes before being exposed to the photographic film.

PD1-IgG1.Fc = biological target: T1, PD1-IgG1.Fc (Homo sapiens, UniProt Q15116); assay: ELISA of recombinant PD-L1 binding to PD1-IgG1.Fc; settings: plate coated with PD-L1 50 μg/ml; PD1-IgG1.Fc 50 μg/ml; FIG. 14D
T1 construct: made in house; host or cells: Expi293F
Protocol: Binding activity of recombinant PD-L1 protein was assayed with ELISA using a 96-well plate coated with recombinant PD-L1 protein in 50 μg/ml concentration, 100 μl per well. After the excess PD-L1 was washed off and the solid phase blocked, 100 μl per well of PD1-IgG1.Fc at 50 μg/ml was added. The bound PD1-IgG1.Fc was determined by HRP-conjugated goat anti-human IgG.Fc. 50 μl of TMB substrate was added for color development. The reaction was stopped by 50 μl of 1M HCl. Absorbance at 450 nm was measured with a plate reader. Each bar represents the mean OD450 value of duplicate samples.

human HLA-A2 = biological target: T2, human HLA-A2 (Homo sapiens, UniProt P04439); assay: Single colony ELISA of phage-displayed scFvs specific for human HLA-A2; type: binding; settings: HLA-A2 0.5 μg/100 μl per well; FIG. 16B
T2 construct: made in house; host or cells: Expi293F
Protocol: E. coli strain ER2738 infected with single-clonal phages each harboring a selected scFv gene in its phagemid was grown in the mid-log phase in 2YT broth (16 g/l tryptone, 10 g/l yeast extract, 5 g/l NaCl, pH 7.0) with 100 μg/ml ampicillin in deep well at 37° C. with shaking. After the broth reached an OD600 of 1.0, IPTG was added to a final concentration of 1 μg/ml. The plates were incubated at 37° C. overnight under rigorously shaking. Thereafter, the plates were centrifuged at 4,000 g for 15 minutes at 4° C.
For soluble scFv binding test, ELISA was carried out. Briefly, 96-well Maxisorp 96-well plate (Nunc) was coated with human HLA-A2 (0.5 μg/100 μl PBS per well) or two negative control antigens, human heat shock protein 70 (Hsp 70) and RSV-IgG1.Fc fusion protein (prepared by our laboratory), for 18 hours with shaking at 4° C. After being treated with 300 μl of blocking buffer for 1 hour, 100 μl of secreted scFv in the supernatant was mixed with 100 μl of blocking buffer and then added to the coated plate for another 1 hour. Goat anti-E-tag antibody (conjugated with HRP, 1:4000, Cat. No. AB19400, Abcam) was added to the plate for 1 hour. TMB substrate (50 μl per well) was added to the wells and the absorbance at 450 nm was measured after reactions were stopped by adding 1N HCl (50 μl per well).

recombinant HLA-A1 = biological target: T3, recombinant HLA-A1 (Homo sapiens, UniProt P04439); assay: ELISA of tetrazine-conjugated scFv specific for human HLA-A1; type: binding; settings: FIG. 17B
T3 construct: made in house; host or cells: Expi293F
Text: The purity of tetrazine-conjugated scFv specific for human HLA-A1 was identified through Coomassie blue staining of 12% SDS-PAGE. FIGS. 17A and 17B show, respectively, the mass spectrometric and ELISA analysis of tetrazine-conjugated scFv specific for human HLA-A1, in which unmodified scFv specific for human HLA-A1 was used as a positive control.

T1 sequence (Q15116 with tags, fused parts or gaps): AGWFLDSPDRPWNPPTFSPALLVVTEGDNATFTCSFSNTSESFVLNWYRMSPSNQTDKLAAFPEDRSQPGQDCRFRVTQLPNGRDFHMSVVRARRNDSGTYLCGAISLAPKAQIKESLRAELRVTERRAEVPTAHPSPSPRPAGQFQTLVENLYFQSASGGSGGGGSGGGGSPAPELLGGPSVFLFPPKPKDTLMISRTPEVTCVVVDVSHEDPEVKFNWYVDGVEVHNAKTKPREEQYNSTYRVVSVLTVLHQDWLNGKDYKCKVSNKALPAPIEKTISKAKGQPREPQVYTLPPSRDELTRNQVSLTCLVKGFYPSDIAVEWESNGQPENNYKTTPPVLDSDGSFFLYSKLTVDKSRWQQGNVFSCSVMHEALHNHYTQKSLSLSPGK

Row | Molecule | mTOR/p70S6K signally pathway in the treated T cells, compared with unmodified sirolimus [1] | phosphorylated level of p70S6K [1] | further results
1 | CO[C@H]1C[C@@H]2CC[C@@H](C)[C@@](O)(O2)C(=O)C(=O)N2CCCC[C@H]2C(=O)O[C@H]([C@H](C)C[C@@H]2CC[C@@H](OC(=O)CN)[C@H](OC)C2)CC(=O)[C@H](C)/C=C(\C)[C@@H](O)[C@@H](OC)C(=O)[C@H](C)C[C@H](C)/C=C/C=C/C=C/1C [sirolimus-Gly, Sirolimus monoglycine] | blocked | decreased | –
2 | CO[C@H]1C[C@@H]2CC[C@@H](C)[C@@](O)(O2)C(=O)C(=O)N2CCCC[C@H]2C(=O)O[C@H]([C@H](C)C[C@@H]2CC[C@@H](OC(=O)CNC(=O)CN)[C@H](OC)C2)CC(=O)[C@H](C)/C=C(\C)[C@@H](O)[C@@H](OC)C(=O)[C@H](C)C[C@H](C)/C=C/C=C/C=C/1C [sirolimus-diGly, sirolimus di-glycine] | blocked | decreased | –
3 | recombinant human CTLA-4: recombinant human CTLA-4 (SEQ ID NO: 30) with GGGGSGGGGS linker and terminal cysteine | – | – | binding by the scFv specific for CTLA-4 (western blot) (scFv specific for CTLA-4): specifically bound
4 | recombinant human PD-L1: recombinant human PD-L1 (SEQ ID NO: 31) with GGGGSGGGGS linker and terminal cysteine | – | – | binding to recombinant PD1-IgG1.Fc (ELISA) (PD1-IgG1.Fc): specifically bound
5 | 3E10: phage-displayed human scFv clone specific for human HLA-A2, SEQ ID NO: 34 (protein, phage-displayed scFv specific for HLA-A2, 3E10) scFv: DIQMTQSPSSLSASVGDRVTITCRASQDVFFFVAWYQQKPGKAPKLLIYGPPGLYSGVPSRFSGSGSGTDFTLTISSLQPEDFATYYCQQYFSFPITFGQGTKVEIKRGGGGSIEGRSGGGGSEVQLVESGGGLVQPGGSLRLSCAASGFTISNGGIHWVRQAPGKGLEWVASIWPSGGYTSYADSVKGRFTISADTSKNTAYLQMNSLRAEDTAVYYCARFGVNYHGIMDYWGQGTLVTVSS | – | – | OD450 of binding to human HLA-A2 (human HLA-A2): 1.3
6 | tetrazine-conjugated scFv specific for human HLA-A1: scFv specific for human HLA-A1 conjugated at C-terminal cysteine with Mal-PEG4-tetrazine (protein) scFv: DIQMTQSPSTLSASVGDRVTITCRASQSISNWLAWYQQKPGKAPNLLIYKASSLESGVPSRFSGSGSGTEFTLTISSLQPDDFATYYCQQYHDYSVTFGAGTKVEIKRGGGGSGGGGSGGGGSEVQLLESGGGLVQPGGSQRLSCVASGVPFSNYAMNWVRQAPGKGLEWVSSISGGGDRTFYADSVKGRFTISRDNSKNTLYLQMNSLGAGDTAVYYCAKTYYDFWSGYSRHLNSWGQGSLVTVSSGGGGSGGGGSC | – | – | binding to recombinant HLA-A1 (ELISA) (recombinant HLA-A1): bound
